Experimental data: patent publication US8686147B2, “Compound with serotoninergic activity, process for preparing it and pharmaceutical composition comprising it” (Aziende Chimiche Riunite Angelini Francesco A.C.R.A.F. …, priority 2009, dated 2014)

Experiments:
[1] = target: T1, 5-HT4 serotonin receptor (Cavia porcellus, UniProt O70528); experiment: Binding to the 5-HT4 serotonin receptor (radioligand binding, homogenate of guinea pig striatum); conditions: six concentrations, read-out: 5-HT4 (pKi) (converted)
T1 construct: The starting materials used were an homogenate of guinea pig striatum; from tissue; host or cells: guinea pig striatum homogenate
Description: (§1) Confirmation of the binding to the serotoninergic receptors was performed by means of a biochemical test on purified membranes from recombinant human cells that stably express the specific receptors or from selected animal tissues as described in particular in Grossman C.
(§2) Confirmation of the binding to the serotoninergic receptors was made using purified membranes from selected animal tissues or from recombinant human cells that stably express the specific receptors.
Binding to the 5-HT4 serotonin receptor was performed using standard methods described in: Grossman C. […] The test compounds were tested at six concentrations to obtain the pKi values of the individual compounds.

[2] = target: T2, human 5-HT2A serotonin receptor (Homo sapiens, UniProt P28223); experiment: Binding to the human 5-HT2A serotonin receptor; conditions: human 5-HT2A receptor, six concentrations; for Ki: read-out: 5-HT2 (pKi) (converted)
T2 construct: expressed in transfected cells
Description: as §1, with “C. J. et al. (1993), Br. J. Pharmacol. 109: 618-624, Bonhaus D. W. et al. (1995), Br. J. Pharmacol. 115(4): 622-628; and Saucier C. et al. (1997), J. Neurochem. 68(5): 1998-2011.” for “C.”
as §2
Binding to the human 5-HT2A serotonin receptor was performed via the standard method described in Bonhaus, D. W., Bach C., De Souza A., Salazar F. H., Matsuoka B. D., Zuppan P., Chan H. W., Eglen R. M. (1995): “The pharmacology and distribution of human 5-hydroxytryptamine 2B (5-HT2B) receptor gene products: comparison with 5-HT2A and 5-HT2C receptors.” Br. J. Pharmacol. 115(4): 622-628; and Saucier C., Albert P. R. (1997): “Identification of an endogenous 5-hydroxytryptamine 2A receptor in NIH-3T3 cells: agonist-induced down-regulation involves decreases in receptor RNA and number.” J. Neurochem. 68(5): 1998-2011. The test compounds were tested at six concentrations to obtain the pKi values of the individual compounds.
The values of affinity for the 5-HT4 and 5-HT2A receptor of a number of compounds of formula (I) according to the present invention are given, respectively, in Tables 2 and 3, and expressed as pKi, the value of which is proportionately greater the greater the affinity of the compound for the receptor.

T2 sequence (P28223 whole entry): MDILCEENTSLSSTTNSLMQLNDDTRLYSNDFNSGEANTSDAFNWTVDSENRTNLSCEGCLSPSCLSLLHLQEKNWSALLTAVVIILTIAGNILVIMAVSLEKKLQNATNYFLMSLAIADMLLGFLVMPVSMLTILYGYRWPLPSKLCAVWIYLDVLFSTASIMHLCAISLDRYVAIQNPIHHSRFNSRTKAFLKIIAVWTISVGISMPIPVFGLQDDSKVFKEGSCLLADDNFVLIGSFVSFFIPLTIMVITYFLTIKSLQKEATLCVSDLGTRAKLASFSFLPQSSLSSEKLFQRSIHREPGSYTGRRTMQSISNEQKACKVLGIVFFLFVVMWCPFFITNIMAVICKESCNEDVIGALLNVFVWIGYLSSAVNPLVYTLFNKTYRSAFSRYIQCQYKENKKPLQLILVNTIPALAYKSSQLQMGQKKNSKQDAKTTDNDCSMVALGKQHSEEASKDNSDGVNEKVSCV
T1 sequence (O70528 whole entry): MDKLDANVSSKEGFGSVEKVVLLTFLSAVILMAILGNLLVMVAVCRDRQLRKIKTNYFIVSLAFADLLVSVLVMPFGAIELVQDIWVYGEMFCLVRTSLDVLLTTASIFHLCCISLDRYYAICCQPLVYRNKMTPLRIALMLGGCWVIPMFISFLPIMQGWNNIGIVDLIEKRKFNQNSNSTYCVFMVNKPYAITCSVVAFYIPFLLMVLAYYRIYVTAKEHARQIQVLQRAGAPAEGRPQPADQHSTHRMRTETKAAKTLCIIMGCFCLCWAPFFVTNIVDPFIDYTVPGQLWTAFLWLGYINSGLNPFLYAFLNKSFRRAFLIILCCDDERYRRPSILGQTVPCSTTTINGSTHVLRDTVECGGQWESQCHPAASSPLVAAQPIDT

SMILES	Ki [1]	Ki [2]	melting point	5-HT2 (pKi) [2]
Cn1cc2c(OCC3CCN(CCc4ccccc4)CC3)nc3ccccc3c2c1 [Compound 4, 4-{[1-(2-Phenyl)ethylpiperidine-4-yl]methoxy}-2-methyl-2H-pyrrolo[3,4-c]quinoline]	1.86 nM			
COCc1ccc(CCN2CCC(COc3nc4ccccc4c4cn(C)cc34)CC2)cc1 [Compound 16, 4-[(1-(4-Methoxymethylphenylethyl)piperid-4-yl)methyloxy]-2-methyl-2H-pyrrolo[3,4-c]quinoline]	19.1 nM			
CC(C)n1cc2c(OCC3CCN(CCc4ccccc4)CC3)nc3ccccc3c2c1 [Compound 5, 4-{[1-(2-Phenyl)ethylpiperid-4-yl]methoxy}-2-isopropyl-2H-pyrrolo[3,4-c]quinoline]	138 nM			
Cn1cc2c(OCC3CCN(CC(=O)Nc4ccccc4)CC3)nc3ccccc3c2c1 [Compound 6, N-Phenyl-2-{4-[2-methyl-2H-pyrrolo[3,4-c]quinolin-4-yloxy-methyl]piperid-1-yl}acetamide]	132 nM			
CC(=O)Nc1ccc(CCN2CCC(COc3nc4ccccc4c4cn(C)cc34)CC2)cc1 [Compound 13, 4-[(1-(4-Acetamidophenylethyl)piperid-4-yl)methyloxy]-2-methyl-2H-pyrrolo[3,4-c]quinoline]	1.86 nM	> 1000 nM		
Cl.Cn1cc2c(OCC3CCN(CC(=O)Nc4ccccc4)CC3)nc3ccccc3c2c1			163 to 165 °C	
Cl.Cn1cc2c(OCC3CCN(CCc4ccc(N)cc4)CC3)nc3ccccc3c2c1 [Compound 11a, 4-[(1-(4-Aminophenylethyl)piperid-4-yl)methyloxy]-2-methyl-2H-pyrrolo[3,4-c]quinoline hydrochloride]	4.57 nM		165 to 167 °C	6.6
CCCCN1CCC(COc2nc3ccccc3c3cn(C)cc23)CC1 [Compound 3, 4-[(1-Butylpiperid-4-yl)methyloxy]-2-methyl-2H-pyrrolo[3,4-c]quinoline]	14.8 nM	> 1000 nM		

Second part, led by results:

Ki [1]	Ki [2]	melting point	SMILES	5-HT2 (pKi) [2]
2.29 nM	> 10000 nM	190 to 192 °C	Cl.Cn1cc2c(OCC3CCN(CCN4CCOCC4)CC3)nc3ccccc3c2c1 [Compound 9a, 4-{[1-(2-(4-Morpholinyl)ethyl)piperid-4-yl]methyloxy}-2-methyl-2H-pyrrolo[3,4-c]quinoline hydrochloride]	
2.24 nM	> 10000 nM		Cn1cc2c(OCC3CCN(CCc4ccc(C(=O)O)cc4)CC3)nc3ccccc3c2c1 [Compound 12a]	
